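1) Cells in 96-well plates. 2) Compound, 48 h, 5 concentrations. 3) Linear interpolation between surrounding doses. 4) Unreached endpoint = highest concentration. GI50 = concentration required for 50% inhibition of growth.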 Active and inactive are the calls of the source. Rule as the data show it: active = GI50 up to about 1.1 µM and inactive = higher.
What was measured:
Test in all cases: inhibition of tumour cell growth, NCI panel, 48 h
NCI-H522 = tested on: NCI-H522
RXF 393 = tested on: RXF 393
SK-MEL-2 = tested on: SK-MEL-2
786-0 = tested on: 786-0
A498 = tested on: A498
A549 = tested on: A549
ACHN = tested on: ACHN
CAKI-1 = tested on: CAKI-1
CCRF-CEM = tested on: CCRF-CEM
COLO 205 = tested on: COLO 205
DU-145 = tested on: DU-145
EKVX = tested on: EKVX
HCC 2998 = tested on: HCC 2998
HCT-116 = tested on: HCT-116
HCT-15 = tested on: HCT-15
HL-60 = tested on: HL-60
HOP-62 = tested on: HOP-62
HOP-92 = tested on: HOP-92
HT-29 = tested on: HT-29
IGROV-1 = tested on: IGROV-1
K562 = tested on: K562
KM12 = tested on: KM12
LOX IMVI = tested on: LOX IMVI
M14 = tested on: M14
MCF7 = tested on: MCF7
MDA-MB-231 = tested on: MDA-MB-231
MDA-MB-435 = tested on: MDA-MB-435
MDA-N = tested on: MDA-N
MOLT-4 = tested on: MOLT-4
Malme-3M = tested on: Malme-3M
NCI-H226 = tested on: NCI-H226
NCI-H23 = tested on: NCI-H23
NCI-H460 = tested on: NCI-H460
NCI/ADR-RES = tested on: NCI/ADR-RES
OVCAR-3 = tested on: OVCAR-3
OVCAR-4 = tested on: OVCAR-4
OVCAR-5 = tested on: OVCAR-5
OVCAR-8 = tested on: OVCAR-8
PC-3 = tested on: PC-3
SF-268 = tested on: SF-268
SF-295 = tested on: SF-295
SF-539 = tested on: SF-539
SK-MEL-28 = tested on: SK-MEL-28
SK-MEL-5 = tested on: SK-MEL-5
SK-OV-3 = tested on: SK-OV-3
SN12C = tested on: SN12C
SNB-19 = tested on: SNB-19
SNB-75 = tested on: SNB-75
SW-620 = tested on: SW-620
T47D = tested on: T47D
TK-10 = tested on: TK-10
U-251 = tested on: U-251
UACC-257 = tested on: UACC-257
UACC-62 = tested on: UACC-62
UO-31 = tested on: UO-31
Hs-578T = tested on: Hs-578T
RPMI-8226 = tested on: RPMI-8226
SR = tested on: SR

CC(CN(C)C)Nc1c2ccccc2nc2cccc([N+](=O)[O-])c12 (stereo not given)
GI50 (NCI-H522): < 0.0153 µM (active) | GI50 (RXF 393): < 0.01 µM (active) | GI50 (SK-MEL-2): < 0.01 µM (active)

CS/C(=N\C#N)NC1CC(n2cc(C)c(=O)[nH]c2=O)OC1CO (stereo not given)
GI50 (786-0): > 100 µM (inactive) | GI50 (A498): > 100 µM (inactive) | GI50 (A549): > 100 µM (inactive) | GI50 (ACHN): > 100 µM (inactive) | GI50 (CAKI-1): > 100 µM (inactive) | GI50 (CCRF-CEM): > 100 µM (inactive) | GI50 (COLO 205): > 100 µM (inactive) | GI50 (DU-145): > 100 µM (inactive) | GI50 (EKVX): > 100 µM (inactive) | GI50 (HCC 2998): > 100 µM (inactive) | GI50 (HCT-116): > 100 µM (inactive) | GI50 (HCT-15): > 100 µM | GI50 (HL-60): > 100 µM (inactive) | GI50 (HOP-62): > 100 µM (inactive) | GI50 (HOP-92): > 100 µM (inactive) | GI50 (HT-29): > 100 µM (inactive) | GI50 (IGROV-1): > 100 µM (inactive) | GI50 (K562): > 100 µM (inactive) | GI50 (KM12): > 100 µM (inactive) | GI50 (LOX IMVI): > 100 µM (inactive) | GI50 (M14): > 100 µM (inactive) | GI50 (MCF7): > 100 µM (inactive) | GI50 (MDA-MB-231): > 100 µM (inactive) | GI50 (MDA-MB-435): > 100 µM (inactive) | GI50 (MDA-N): > 100 µM (inactive) | GI50 (MOLT-4): > 100 µM (inactive) | GI50 (Malme-3M): > 100 µM (inactive) | GI50 (NCI-H226): > 100 µM (inactive) | GI50 (NCI-H23): > 100 µM (inactive) | GI50 (NCI-H460): > 100 µM (inactive) | GI50 (NCI-H522): > 100 µM (inactive) | GI50 (NCI/ADR-RES): > 100 µM (inactive) | GI50 (OVCAR-3): > 100 µM (inactive) | GI50 (OVCAR-4): > 100 µM (inactive) | GI50 (OVCAR-5): > 100 µM (inactive) | GI50 (OVCAR-8): > 100 µM (inactive) | GI50 (PC-3): > 100 µM (inactive) | GI50 (RXF 393): > 100 µM (inactive) | GI50 (SF-268): > 100 µM (inactive) | GI50 (SF-295): > 100 µM (inactive) | GI50 (SF-539): > 100 µM (inactive) | GI50 (SK-MEL-28): > 100 µM (inactive) | GI50 (SK-MEL-2): > 100 µM (inactive) | GI50 (SK-MEL-5): > 100 µM (inactive) | GI50 (SK-OV-3): > 100 µM (inactive) | GI50 (SN12C): > 100 µM (inactive) | GI50 (SNB-19): > 100 µM (inactive) | GI50 (SNB-75): > 100 µM (inactive) | GI50 (SW-620): > 100 µM (inactive) | GI50 (T47D): > 100 µM (inactive) | GI50 (TK-10): > 100 µM (inactive) | GI50 (U-251): > 100 µM (inactive) | GI50 (UACC-257): > 100 µM (inactive) | GI50 (UACC-62): > 100 µM (inactive) | GI50 (UO-31): > 100 µM (inactive)

CC1(C)C2CCC3CC(CCC#N)CCC3C21C#N (stereo not given)
GI50 (786-0): > 100 µM (inactive) | GI50 (A498): > 100 µM (inactive) | GI50 (A549): > 100 µM (inactive) | GI50 (ACHN): > 100 µM (inactive) | GI50 (CAKI-1): > 100 µM (inactive) | GI50 (CCRF-CEM): > 100 µM (inactive) | GI50 (COLO 205): > 100 µM (inactive) | GI50 (DU-145): > 100 µM (inactive) | GI50 (EKVX): > 100 µM (inactive) | GI50 (HCC 2998): > 100 µM (inactive) | GI50 (HCT-116): > 100 µM (inactive) | GI50 (HCT-15): > 100 µM | GI50 (HL-60): > 100 µM (inactive) | GI50 (HOP-62): > 100 µM (inactive) | GI50 (HOP-92): > 100 µM (inactive) | GI50 (HT-29): > 100 µM (inactive) | GI50 (Hs-578T): > 100 µM (inactive) | GI50 (IGROV-1): > 100 µM (inactive) | GI50 (K562): > 100 µM (inactive) | GI50 (KM12): 18 µM (inactive) | GI50 (LOX IMVI): > 100 µM (inactive) | GI50 (M14): > 100 µM (inactive) | GI50 (MCF7): > 100 µM (inactive) | GI50 (MDA-MB-231): > 100 µM (inactive) | GI50 (MDA-MB-435): > 100 µM (inactive) | GI50 (MDA-N): > 100 µM (inactive) | GI50 (MOLT-4): > 100 µM (inactive) | GI50 (Malme-3M): > 100 µM (inactive) | GI50 (NCI-H226): > 100 µM (inactive) | GI50 (NCI-H23): > 100 µM (inactive) | GI50 (NCI-H460): > 100 µM (inactive) | GI50 (NCI-H522): > 100 µM (inactive) | GI50 (NCI/ADR-RES): > 100 µM (inactive) | GI50 (OVCAR-3): > 100 µM (inactive) | GI50 (OVCAR-4): > 100 µM (inactive) | GI50 (OVCAR-5): > 100 µM (inactive) | GI50 (OVCAR-8): > 100 µM (inactive) | GI50 (PC-3): > 100 µM (inactive) | GI50 (RPMI-8226): > 100 µM (inactive) | GI50 (RXF 393): > 100 µM (inactive) | GI50 (SF-268): > 100 µM (inactive) | GI50 (SF-295): > 100 µM (inactive) | GI50 (SF-539): > 100 µM (inactive) | GI50 (SK-MEL-28): > 100 µM (inactive) | GI50 (SK-MEL-2): > 100 µM (inactive) | GI50 (SK-MEL-5): > 100 µM (inactive) | GI50 (SK-OV-3): > 100 µM (inactive) | GI50 (SN12C): > 100 µM (inactive) | GI50 (SNB-19): > 100 µM (inactive) | GI50 (SR): > 100 µM (inactive) | GI50 (SW-620): > 100 µM (inactive) | GI50 (T47D): > 100 µM (inactive) | GI50 (TK-10): > 100 µM (inactive) | GI50 (U-251): > 100 µM (inactive) | GI50 (UACC-257): > 100 µM (inactive) | GI50 (UACC-62): > 100 µM (inactive) | GI50 (UO-31): > 100 µM (inactive)

Source: ChEMBL document CHEMBL1201862, “PubChem BioAssay data set” (2004)
